In patent publication US7754718B2 (priority 2004, dated 2010):

Legend:
[1] = system: HBV; experiment: In vitro antiviral assay for HBV (Table 1); assay type: cell-based, Hepatitis B virus; conditions: Hepatitis B virus, read-out: Antiviral Activities (EC50, μM) HBV
Experimental: (§1) The antiviral assays for HBV, (Doong et al., 1991, Proc. Natl. Acad. Sci. U.S.A. 88:8495-8499) HSV-1, (Bastow et al., 1983, Antimicrob. Agents Chemother. 23: 914-917) HSV-2, (Bastow et al., 1983, Antimicrob. Agents Chemother. 23:914-917) EBV, (Yao et al., 1993, Antimicrob. Agents Chemother. 37:1420-1425), CMV (Andreoni et al., 2002, J. Med. Virol. 67:33-40) and HIV (Mellors et al., 1992, Mol. Pharmacol. 41: 446-451) were performed according to the previously reported procedures. Anti-HCV activities were tested in Huh-Luc/neo cell line. Cells were seeded into 48-well plates and grown until confluent. Different concentrations of drugs were added into media (DMEM, 10% dFBS) and incubated for 3 days. At the end of 3-day treatment, medium were removed and 50 μl of Passive lysis buffer (Promega) were added. Cell lysate was shaken at room temperature for 15 min. 30 μl/well of cell lysate was transferred to another 96-well plate, 100 μl/well of luciferase activity assay substrate was added into plate and read by a luminometer (Amersham) immediately.

[2] = system: HCV; experiment: Anti-HCV activity in Huh-Luc/neo cell line, luciferase activity after 3-day treatment; assay type: cell-based, Hepatitis C virus; conditions: Hepatitis C virus, 72 h, Huh-Luc/neo cells, 3 days; for EC50: given as a bound only, read-out: Antiviral Activities (EC50, μM) HCV
Experimental: as §1

[3] = system: HSV-1; experiment: In vitro antiviral assay for HSV-1; assay type: cell-based, Herpes Simplex Virus 1; conditions: Human alphaherpesvirus 1, read-out: Antiviral Activities (EC50, μM) HSV-1
Experimental: as §1

[4] = system: HSV-2; experiment: In vitro antiviral assay for HSV-2; assay type: cell-based, Herpes Simplex Virus 2; conditions: Human alphaherpesvirus 2, read-out: Antiviral Activities (EC50, μM) HSV-2
Experimental: as §1

[5] = system: EBV; experiment: In vitro antiviral assay for EBV; assay type: cell-based, Epstein-Barr Virus; conditions: human gammaherpesvirus 4, read-out: Antiviral Activities (EC50, μM) EBV
Experimental: as §1

[6] = system: CMV; experiment: In vitro antiviral assay for CMV; assay type: cell-based, cytomegalovirus; conditions: Human betaherpesvirus 5, read-out: Antiviral Activities (EC50, μM) CMV
Experimental: as §1

[7] = system: HIV; experiment: In vitro antiviral assay for HIV; assay type: cell-based, human immunodeficiency virus; conditions: Human immunodeficiency virus 1, read-out: Antiviral Activities (EC50, μM) HIV, in vitro; (T) after a value means toxic
Experimental: as §1

[8] = Cell cytotoxicity assay on MT-2 cells; assay type: cell-based; conditions: human, read-out: Cytotoxity (ID50, μM) MT-2
Experimental: (§2) Cytotoxicities of test compounds on MT-2 (Mellors et al., 1992 Mol. Pharmacol. 41:446-451) and CEM (Grove et al., 1995, Cancer Res. 55:3008-3011) cells were determined according to the previously reported procedures. Hepg2 cells were seeded at a density of 10^4 cells/ml/well in 24-well plates and cultured in MEME supplemented with 10% FBS at 37° C. and 5% CO2. Each test compound at different concentrations was added on the second day of the culture and the cells were incubated for another 3 days. At the end of the incubation period, the medium was removed and 0.5 ml of 0.5% methylene blue in 50% ethanol (v/v) was added to each well and set at room temperature for 30-60 minutes. The methylene blue was removed; the plates were washed with water and allowed to air dry. Once dry, 1% sarcosyl was added to dissolve the stained cell layer. The absorbance at 595 nm was measured with a microplate reader (Molecular Devices Corp. Sunnyvale, Calif.). The cytotoxicity to CEM cell was calculated as described previously (Grove et al., 1995, Cancer Res. 55 (14): 3008-3011).

[9] = Cell cytotoxicity assay on CEM cells; assay type: cell-based; conditions: human, read-out: Cytotoxity (ID50, μM) CEM
Experimental: as §2

[10] = read-out: HCV percent of inhibition

Row | Structure (SMILES) | EC50 [1] | EC50 [2] | EC50 [3] | EC50 [4] | EC50 [5] | EC50 [6] | EC50 [7] | IC50 [8] | IC50 [9] | inhibition at 3 µM ([2]; at 3 μM, read-out: HCV percent of inhibition) | melting point | inhibition at 10 µM [2, 10]
1 | O=C1OC(=O)c2c1cc1ccc3c(c1c2-c1ccc2c(c1)OCO2)OCO3 [Compound 1, 10-Benzo[1,3]dioxol-5-yl-furo[3′,4′:6,7]naphtho[1,2-d][1,3]dioxole-7,9-dione] | > 10 µM | > 10 µM | > 50 µM | > 50 µM | > 20 µM | 17.6 µM | > 100 µM | > 100 µM | > 50 µM |  |  | 
2 | CN1Cc2cc3ccc4c(c3c(-c3ccc5c(c3)OCO5)c2C1=O)OCO4 [Compound 17, 10-Benzo[1,3]dioxol-5-yl-8-methyl-7,8-dihydro-1,3-dioxa-8-aza-dicyclopenta[a,g]naphthalen-9-one] | > 10 µM |  | 14 µM | 14 µM | > 20 µM |  | > 26 µM | 26 µM | 27 µM | 29% | 242 to 244 °C | 
3 | CN1Cc2c(cc3ccc4c(c3c2-c2ccc3c(c2)OCO3)OCO4)C1=O [Compound 19, 10-Benzo[1,3]dioxol-5-yl-8-methyl-8,9-dihydro-1,3-dioxa-8-aza-dicyclopenta[a,g]naphthalen-7-one] | 1.6 µM | > 3 µM | 0.67 µM | 1 µM | > 20 µM |  | > 8 µM | 8 µM | 6 µM |  | 234 to 236 °C | 
4 | O=C1c2cc3ccc4c(c3c(-c3ccc5c(c3)OCO5)c2CN1CCCO)OCO4 [Compound 21, 10-Benzo[1,3]dioxol-5-yl-8-(3-hydroxy-propyl)-8,9-dihydro-1,3-dioxa-8-aza-dicyclopenta[a,g]naphthalen-7-one] | > 20 µM |  | 5 µM | 7 µM | > 20 µM |  | 5 µM | 22 µM | 22 µM |  | 213 to 215 °C | 58%
5 | CC(=O)NN1C(=O)c2cc3ccc4c(c3c(-c3ccc5c(c3)OCO5)c2C1=O)OCO4 [Compound 25, N-(10-Benzo[1,3]dioxol-5-yl-7,9-dioxo-7,9-dihydro-1,3-dioxa-8-aza-dicyclopenta[a,g]naphthalen-8-yl)-acetamide] | > 10 µM | > 10 µM | > 40 µM | > 40 µM | > 20 µM |  | > 100 µM | > 100 µM | 93 µM |  | 281 to 283 °C | 
6 | COC(=O)c1cc2ccc3c(c2c(-c2ccc4c(c2)OCO4)c1C(=O)OC)OCO3 [Compound 30, 9-Benzo[1,3]dioxol-5-yl-naphtho[1,2-d][1,3]dioxole-7,8-dicarboxylic acid dimethyl ester] | > 20 µM |  | > 50 µM | > 50 µM | > 20 µM |  | > 28 µM | 28 µM | 50 µM |  | 157 to 159 °C | 93%
7 | COC(=O)c1c(C(=O)O)cc2ccc3c(c2c1-c1ccc2c(c1)OCO2)OCO3 [Compound 31, 9-Benzo[1,3]dioxol-5-yl-naphtho[1,2-d][1,3]dioxole-7,8-dicarboxylic acid 8-methyl ester] | > 20 µM | > 10 µM | > 50 µM | > 50 µM | > 20 µM |  | > 90 µM | 90 µM | 74 µM |  | 273 to 275 °C | 
8 | O=C(O)c1cc2ccc3c(c2c(-c2ccc4c(c2)OCO4)c1C(=O)O)OCO3 [Compound 32, 9-Benzo[1,3]dioxol-5-yl-naphtho[1,2-d][1,3]dioxole-7,8-dicarboxylic acid] | > 20 µM | > 10 µM | > 50 µM | > 50 µM | > 20 µM |  | > 100 µM | > 100 µM | > 100 µM |  | 253 °C (dec.) | 
9 | CCOC(=O)c1c(C(=O)OCC)c(-c2ccc3c(c2)OCO3)c2c3c(ccc2c1O)OCO3 [Compound 33, 9-Benzo[1,3]dioxol-5-yl-6-hydroxy-naphtho[1,2-d][1,3]dioxole-7,8-dicarboxylic acid diethyl ester] | > 10 µM |  | > 50 µM | > 50 µM | > 10 µM |  | > 15 µM | 15 µM | 39 µM |  | 192 to 194 °C | 62%
10 | O=C1OCc2c1c(-c1ccc3c(c1)OCO3)c1c3c(ccc1c2O)OCO3 [Compound 34, 10-Benzo[1,3]dioxol-5-yl-6-hydroxy-7H-furo[3′,4′:6,7]naphtho[1,2-d][1,3]dioxol-9-one] | > 10 µM | > 10 µM | 23 µM | 28 µM | > 10 µM |  | > 13 µM | 13 µM | 31 µM |  | 257 °C (dec.) | 
11 | O=C1OCc2c1cc1c(Br)cc3c(c1c2-c1ccc2c(c1)OCO2)OCO3 [Compound 38, 10-Benzo[1,3]dioxol-5-yl-5-bromo-9H-furo[3′,4′:6,7]naphtho[1,2-d][1,3]dioxol-7-one] | > 60 µM | > 10 µM | > 50 µM | > 50 µM | > 15 µM |  | > 100 µM | > 100 µM | 100 µM |  | 256 °C (dec.) | 
12 | O=C1OCc2c1cc1c(I)cc3c(c1c2-c1ccc2c(c1)OCO2)OCO3 [Compound 39, 10-Benzo[1,3]dioxol-5-yl-5-iodo-9H-furo[3′,4′:6,7]naphtho[1,2-d][1,3]dioxol-7-one] | > 40 µM | > 10 µM | > 25 µM | > 25 µM | > 10 µM |  | > 80 µM | 80 µM | 70 µM |  | 255 °C (dec.) | 
13 | O=C1NCc2c1cc1c(Br)cc3c(c1c2-c1ccc2c(c1)OCO2)OCO3 [Compound 40, 10-Benzo[1,3]dioxol-5-yl-5-bromo-8,9-dihydro-1,3-dioxa-8-aza-dicyclopenta[a,g]naphthalen-7-one] | > 20 µM |  | 6.5 µM | > 20 µM | > 20 µM |  | > 54 µM | 54 µM | 38 µM |  | 285 °C (dec.) | 32%
14 | O=c1[nH][nH]c(=O)c2c(-c3ccc4c(c3)OCO4)c3c4c(cc(Cl)c3cc12)OCO4 [Compound 41, 11-Benzo[1,3]dioxol-5-yl-5-chloro-8,9-dihydro-1,3-dioxa-8,9-diaza-cyclopenta[a]anthracene-7,10-dione] | > 10 µM |  | 7 µM | > 40 µM | > 20 µM |  | > 30 µM | 30 µM | > 100 µM |  | 316 °C (dec.) | 60%
15 | O=c1[nH][nH]c(=O)c2c(-c3ccc4c(c3)OCO4)c3c4c(cc(I)c3cc12)OCO4 [Compound 43, 11-Benzo[1,3]dioxol-5-yl-5-iodo-8,9-dihydro-1,3-dioxa-8,9-diaza-cyclopenta[a]anthracene-7,10-dione] | > 10 µM |  | > 40 µM | > 40 µM | > 20 µM |  | 2 µM | 35 µM | 40 µM |  | 300 °C (dec.) | 52%
